Reference: patent US20160038549A1, “METHOD FOR PROMOTING INSULIN SECRETION BY USING COMPOUNDS AND EXTRACTS ISOLATED FROM ANTRODIA CAMPHORATA” (priority 2014, published 2016)

Columns and labels:
MIN6 cell = experiment: Glucose-stimulated insulin secretion (GSIS) assay, insulin by ELISA; format: cell-based, mouse
Procedure: In order to examine the influences of the aforementioned extracts and compounds from Antrodia camphorata for insulin secretion, GSIS assay was performed with MIN6 cell. First, MIN6 cell was incubated in 1×10^5/ml concentration in a 24-well plate and a 15% FBS DMEM medium at 37° C., 5% CO2. After cell attachment, 200 mg/1 BSA medium and the extracts and compounds from Antrodia camphorata in different concentrations were added into each well to react for 24 hours. 5.5 mM/16.7 mM glucose was further added as stimulation and then insulin was determined by ELISA. In the same time, total cellular protein in each well was extracted for a calibration by determining protein concentration with BCA assay.

[1] = system: MIN6 mouse beta insulinoma cell line; experiment: MTT cell viability assay with thapsigargin (TG) challenge; format: cell-based; details: then TG
Procedure: MIN6 mouse beta insulinoma cell line was analyzed by MTT cell viability assay respectively. The MIN6 mouse insulinoma beta cell line is an insulinoma cell line which comes from sarcoma virus 40 transfecting non-obese diabetic mice (NOD mice) by T cells, and is a mouse insulinoma cell line having physiological characteristics of insulinoma beta cell.
MIN6 cell line was cultured in a high glucose DMEM with 15% fetal bovine serum, 50 μmol/L mercaptoethanol, 100 U/ml penicillin, and […] streptomycin. The medium was replaced the next day.
MIN6 cells were prepared for 1×10^5/ml cell liquid suspensions, and then the suspensions were incubated in a 96-well plate with 100 μl in each well. After cell attachment, the medium was replaced with a 0.2% serum medium and then the cells were cultured for 24 hours in order to keep the cells at rest. Then, 200 mg/L BSA medium and the extracts/compounds from Antrodia camphorata with a variety of predetermined concentrations (experimental groups) were added to react for 24 hours, respectively, and then thapsigargin was added to react for 24 hours. A control group was prepared by adding 100 μl medium and then incubating in a constant temperature incubator at 37° C., 5% CO2 for a period of time. 4 hours before the end of the incubating process, 20 μl MTT (0.5 mg/ml) was added into each well, the samples continued being incubated for 4 hours, and then crystalline dissolved fully with vibration. The absorbance (A) at wavelength of 570 nm was determined respectively by a reader. Then the cell viability was calculated by the following formula: the cell viability=(the average of A570 in the experimental group/the average of A570 in the control group)×100%.
Referring to FIG. 1A, the extraction from ANCA-D in different concentrations (6.25, 12.5, 25, 50, 100 ng/ml) was added into cells in each group respectively to react for 24 hours. Then, thapsigargin (TG) was added to react for 24 hours and the cell viability of each group was determined after the reaction. Thapsigargin is an endoplasmic reticulum calcium pump inhibitor which can promote depletion of calcium ions from the endoplasmic reticulum and then open store-operated channels to lead the calcium ions to increase in cells. Then, insulin secretion could be inhibited.

## COC1=C(OC)[C@H](O)[C@H](C/C=C(\C)CC/C=C(\C)CC(O)C=C(C)C)[C@@H](C)C1=O (stereo partly shown) [Antrocamol LT1, 4-hydroxy-5-[9-hydroxy-3,7,11-trimethyldodeca-2,6,10-trienyl]-2,3-dimethoxy-6-methyl-cyclohex-2-enone]
MIN6 cell; pretreated with 500 ng/ml, higher glucose concentration 16.7 mM, FIG. 3C
  insulin secretion relative to control group: about 2 times
MIN6 cell; pretreated with 500 ng/ml, lower glucose concentration 5.5 mM, FIG. 3C
  insulin secretion: slightly increased
MIN6 cell; pretreated with 1000 ng/ml and 500 ng/ml, 5.5 mM/16.7 mM glucose, FIG. 3B
  insulin secretion: slightly increasing tendency
MIN6 cell; pretreated with 1000 ng/ml, higher glucose concentration 16.7 mM, FIG. 3C
  insulin secretion: more obvious
MIN6 cell; pretreated with 1000 ng/ml, lower glucose concentration 5.5 mM, FIG. 3C
  insulin secretion: increasing tendency
[1]; concentrations of 250, 500, and 1000 ng/ml, compared with only-TG control, FIG. 2A
  MIN6 cell viability: increasing tendency was more significant
[1]; pretreated with compound, compared with only-TG control, overall, FIG. 2A
  MIN6 cell viability: could increase the MIN6 cell viability

## COC1=C(OC)[C@H](OC(C)=O)[C@H](C/C=C(\C)CC/C=C(\C)CC(O)C=C(C)C)[C@@H](C)C1=O (stereo partly shown) [Antrocamol LT2, 4-acetoxy-5-[9-hydroxy-3,7,11-trimethyldodeca-2,6,10-trienyl]-2,3-dimethoxy-6-methyl-cyclohex-2-enone]
MIN6 cell; pretreated with 50 ng/ml, FIG. 3B
  effect of promoting insulin secretion: not observed
MIN6 cell; pretreated with 100 ng/ml, 5.5 mM/16.7 mM glucose, FIG. 3B
  insulin secretion relative to control group: about 2 times
[1]; concentration higher than 50 ng/ml, FIG. 2B
  MIN6 cell viability: began to slightly decrease
[1]; lower concentrations, especially 6.25~25 ng/ml, compared with only-TG control, FIG. 2B
  MIN6 cell viability: significantly increase the MIN6 cell viability

## COC1=C(OC)[C@H](O)[C@H](C/C=C(\C)CC/C=C(\C)C/C=C/C(C)(C)O)[C@@H](C)C1=O [Antrocamol LT3, (4R,5R,6R)-4-hydroxy-5-[(2E,6E,9E)-11-hydroxy-3,7,11-trimethyldodeca-2,6,9-trienyl]-2,3-dimethoxy-6-methylcyclohex-2-enone]
MIN6 cell; high glucose, FIG. 3B
  effect for promoting insulin secretion: observed in high glucose
MIN6 cell; low glucose, FIG. 3B
  effect for promoting insulin secretion: not low glucose
MIN6 cell; pretreated with 250 ng/ml, 5.5 mM/16.7 mM glucose, FIG. 3B
  insulin secretion: slightly tendency for promoting insulin secretion
[1]; concentration of 1000 ng/ml, FIG. 2C
  MIN6 cell viability: began increasing
[1]; concentrations lower than 500 ng/ml, compared with only-TG group, FIG. 2C
  MIN6 cell viability: did not significantly influence the MIN6 cell viability
